US12318366B2, “Pharmaceutical combination and composition, and combination preparation containing glucokinase activator and biguanide hypoglycemic drug as well as preparation method and use thereof” (HUA Medicine (Shanghai) Ltd., priority 2018, dated 2025)
Where a name gives a salt, the structure may show the parent alone.

System: patients with type II diabetes
Experiment: Clinical study on the combination of HMS5552 and metformin hydrochloride: blood glucose after the meal
Assay type: in vivo, human
Conditions: 13 type II diabetes patients; oral; metformin hydrochloride 500 mg (day 3), 500 mg + HMS5552 50 mg (day 8), HMS5552 50 mg (day 13); meal 30 minutes after administration
Experimental: 13 patients with type II diabetes were enrolled, who have been given a stable dose of metformin hydrochloride at 1000 mg/day for at least 14 days at the time of enrollment. On the 1st and 2nd day of the study, 500 mg of metformin hydrochloride was given orally daily both in the morning and in the evening; on the 3rd day, 500 mg of metformin hydrochloride was given once in the morning; on each day of the 4th to 7th day, 500 mg of metformin hydrochloride and 50 mg of HMS5552 were given daily both in the morning and in the evening; on the 8th day, 500 mg of metformin hydrochloride and 50 mg of HMS5552 were given once in the morning; on each day of 9th to 12th day, 50 mg of HMS5552 was given orally daily both in the morning and in the evening; and on the 13th day, 50 mg of HMS5552 was given once in the morning. Meals were taken 30 minutes after each administration of the test drugs.
Plasma samples were collected after administration on the 3rd, 8th and 13th day, and the blood glucose concentrations were analyzed.

**Q.** For `CC(C)C[C@@H](C(=O)Nc1ccn(C[C@@H](O)CO)n1)N1CC(Oc2ccccc2Cl)=CC1=O` [HMS5552, (S)-2-[4-(2-chloro-phenoxy)-2-oxo-2,5-dihydro-pyrrol-1-yl]-4-methyl-pentanoic acid [1-((R)-2,3-dihydroxy-propyl)-1H-pyrazol-3-yl]-amide], which “area under the curve for blood glucose between 0 and 4 hours after the meal (AUECO-4h)” value is on record?
**A.** 72.96 mg·h/dL

**Q.** With `CN(C)C(=N)N=C(N)N` [metformin, metformin hydrochloride] as the compound, how does the “area under the curve for blood glucose between 0 and 4 hours after the meal (AUECO-4h)” value read?
**A.** 110.2 mg·h/dL
